Values after ≈ are worked out from the molar mass of the structure shown. Active and inactive are the calls of the source. The rule behind the calls is not given here. *1 amine or outer side, *2 acyl side, *3 side chain or, on linkers, in order; H or OH if unused. Where a SMILES comes first, the peptide text is derived from it. [ ]: non-standard residue; d: D form. X2 = CC[C@H](C)[C@H](OC(=O)[C@@H](C)[C@@H](CC)N[*:1])C(=O)[*:2]; X1 = C[C@H](N[*:1])C(=O)C(C)(C)C(=O)[*:2]; NMeY = CN[C@@H](Cc1ccc(O)cc1)C(=O)O; NMeF = CN[C@@H](Cc1ccccc1)C(=O)O; NMeI = CC[C@H](C)[C@H](NC)C(=O)O; NMeL = CN[C@@H](CC(C)C)C(=O)O; NMeV = CN[C@H](C(=O)O)C(C)C; NMeA = CN[C@@H](C)C(=O)O
What was measured:
A10 [1] = assay: Effect on morphology in rat A10 cells assessed as formation of binuclear cells at 0.01 to 2 ug/ml; assay type: functional, cell-based
[2] = Cytotoxicity against mouse mammary 17/Adr cells assessed as zone units at 2 ug/disk by Corbett soft agar disk diffusion assay; assay type: functional
LoVo = assay: Cytotoxicity against human LoVo cells; assay type: functional
A10 [3] = assay: Induction of apoptosis in rat A10 cells assessed as apoptotic nuclei at 2 ug/ml; assay type: functional, cell-based
[4] = Cytotoxicity against human H116 cells assessed as zone units at 2 ug/disk by Corbett soft agar disk diffusion assay; assay type: functional
Mus musculus [5] = assay: Toxicity in mouse mammary 16/C cells xenografted C3H mouse assessed as mortality at 3.2 mg/kg, iv administered in d 1,2 schedule; assay type: organism-based; design: dose 3.2 mg/kg, route intravenous; settings: in vivo
A10 [6] = assay: Inhibition of cytokinesis in rat A10 cells at 0.01 to 2 ug/ml; assay type: functional, cell-based
A10 [7] = assay: Effect on morphology in rat A10 cells assessed as microtubule loss at 0.01 to 2 ug/ml after 24 hrs by […]; assay type: functional, cell-based
Mus musculus [8] = assay: Toxicity in mouse Colon 38 cells xenografted BDF mouse assessed as body weight loss at nadir at 7.5 mg/kg, iv administered in QD 3-11 schedule; assay type: organism-based, MC-38; design: dose 7.5 mg/kg, route intravenous; settings: in vivo
Mus musculus [9] = assay: Necrosis in iv dosed mouse assessed as inflamed, bloody, upper GI tract with pancreatic damage and hemorrhage in lungs; assay type: organism-based, Gastrointestinal tract; settings: in vivo
[10] = Antitumor activity against mouse mammary 16/C cells xenografted C3H mouse at 3.2 mg/kg, iv administered in d 1,2 schedule; assay type: functional
[11] = Antitumor activity against mouse mammary 16/C cells xenografted C3H mouse at 6.4 mg/kg, iv administered in QD 1-8 schedule; assay type: functional
MC-38 [12] = assay: Antitumor activity against mouse Colon 38 cells xenografted BDF mouse at 7.5 mg/kg, iv administered in QD 3-11 schedule; assay type: functional
Mus musculus [13] = assay: Toxicity in mouse mammary 16/C cells xenografted C3H mouse assessed as body weight loss at nadir at 3.2 mg/kg, iv administered in d 1,2 schedule; assay type: organism-based; design: dose 3.2 mg/kg, route intravenous; settings: in vivo
[14] = Cytotoxicity against CFU-GM cells assessed as zone units at 2 ug/disk by Corbett soft agar disk diffusion assay; assay type: functional
MC-38 [15] = assay: Antitumor activity against mouse Colon 38 cells xenografted BDF mouse at 10.3 mg/kg, iv administered in QD 3-11 schedule; assay type: functional
L1210 [16] = assay: Cytotoxicity against mouse L1210 cells assessed as zone units at 2 ug/disk by Corbett soft agar disk diffusion assay; assay type: functional
Mus musculus [17] = assay: Toxicity in mouse mammary 16/C cells xenografted C3H mouse assessed as body weight loss at nadir at 6.4 mg/kg, iv administered in QD 1-8 schedule; assay type: organism-based; design: dose 6.4 mg/kg, route intravenous; settings: in vivo
Mus musculus [18] = assay: Toxicity in mouse Colon 38 cells xenografted BDF mouse assessed as body weight loss at nadir at 10.3 mg/kg, iv administered in QD 3-11 schedule; assay type: organism-based, MC-38; design: dose 10.3 mg/kg, route intravenous; settings: in vivo
KB = assay: Cytotoxicity against human KB cells; assay type: functional
MC-38 [19] = assay: Cytotoxicity against mouse Colon 38 cells assessed as zone units at 2 ug/disk by Corbett soft agar disk diffusion assay; assay type: functional
Mus musculus [20] = assay: Toxicity in mouse mammary 16/C cells xenografted C3H mouse assessed as mortality at 6.4 mg/kg, iv administered in QD 1-8 schedule; assay type: organism-based; design: dose 6.4 mg/kg, route intravenous; settings: in vivo
[21] = Cytotoxicity against CFU-GM cells assessed as zone units at 12 ug/disk by Corbett soft agar disk diffusion assay; assay type: functional
L1210 [22] = assay: Cytotoxicity against mouse L1210 cells assessed as zone units at 12 ug/disk by Corbett soft agar disk diffusion assay; assay type: functional
MC-38 [23] = assay: Cytotoxicity against mouse Colon 38 cells assessed as zone units at 12 ug/disk by Corbett soft agar disk diffusion assay; assay type: functional
[24] = Cytotoxicity against human H116 cells assessed as zone units at 12 ug/disk by Corbett soft agar disk diffusion assay; assay type: functional
MC-38 [25] = assay: Antitumor activity against mouse Colon 38 cells xenografted BDF mouse at 13 mg/kg, iv administered in QD 3-11 schedule; assay type: functional
A10 [26] = assay: Inhibition of cytokinesis in rat A10 cells; assay type: functional, cell-based
Mus musculus [27] = assay: Toxicity in mouse Colon 38 cells xenografted BDF mouse assessed as body weight loss at nadir at 13 mg/kg, iv administered in QD 3-11 schedule; assay type: organism-based, MC-38; design: dose 13 mg/kg, route intravenous; settings: in vivo
Mus musculus [28] = assay: Toxicity in mouse mammary 16/C cells xenografted C3H mouse assessed as body weight loss at nadir at 11.7 mg/kg, iv administered in QD 1-9 schedule; assay type: organism-based; design: dose 11.7 mg/kg, route intravenous; settings: in vivo
A10 [29] = assay: Induction of apoptosis in rat A10 cells assessed as fragmented cell nuclei at 0.2 ug/ml; assay type: functional, cell-based
MC-38 [30] = assay: Antitumor activity against mouse Colon 38 cells xenografted BDF mouse at 15 mg/kg, iv administered in d 3,4,7-10 schedule; assay type: functional, organism-based; design: dose 15 mg/kg
Mus musculus [31] = assay: Antitumor activity against mouse mammary 16/C cells xenografted C3H mouse at 4.8 mg/kg, iv administered in d 1,2 schedule; assay type: functional, organism-based; design: dose 4.8 mg/kg
Mus musculus [32] = assay: Toxicity in mouse mammary 16/C cells xenografted C3H mouse assessed as mortality at 11.7 mg/kg, iv administered in QD 1-9 schedule; assay type: organism-based; design: dose 11.7 mg/kg, route intravenous; settings: in vivo
A10 [33] = assay: Effect on morphology in rat A10 cells assessed as microtubule loss at 2 ug/ml after 24 hrs by […]; assay type: functional, cell-based
Mus musculus [34] = assay: Toxicity in mouse mammary 16/C cells xenografted C3H mouse assessed as mortality at 4.8 mg/kg, iv administered in d 1,2 schedule; assay type: organism-based; design: dose 4.8 mg/kg, route intravenous; settings: in vivo
[35] = Antitumor activity against mouse mammary 16/C cells xenografted C3H mouse at 11.7 mg/kg, iv administered in QD 1-9 schedule; assay type: functional
Mus musculus [36] = assay: Toxicity in mouse mammary 16/C cells xenografted C3H mouse assessed as body weight loss at nadir at 4.8 mg/kg, iv administered in d 1,2 schedule; assay type: organism-based; design: dose 4.8 mg/kg, route intravenous; settings: in vivo
Mus musculus [37] = assay: Toxicity in mouse Colon 38 cells xenografted BDF mouse assessed as mortality at 13 mg/kg, iv administered in QD 3-11 schedule; assay type: organism-based, MC-38; design: dose 13 mg/kg, route intravenous; settings: in vivo
Mus musculus [38] = assay: Toxicity in mouse Colon 38 cells xenografted BDF mouse assessed as body weight loss at nadir at 15 mg/kg, iv administered in d 3,4,7-10 schedule; assay type: organism-based, MC-38; design: dose 15 mg/kg, route intravenous; settings: in vivo
A10 [39] = assay: Effect on morphology in rat A10 cells assessed as microtubule loss at 0.2 ug/ml after 24 hrs by […]; assay type: functional, cell-based
A10 [40] = assay: Effect on morphology in rat A10 cells assessed as loss of cellular microfilament network at 0.2 ug/ml after 24 hrs by rhodamine-phalloidin staining; assay type: functional, cell-based
A10 [41] = assay: Effect on morphology in rat A10 cells assessed as formation of binuclear cells; assay type: functional, cell-based
A10 [42] = assay: Effect on morphology in rat A10 cells assessed as loss of cellular microfilament network at 2 ug/ml after 24 hrs by rhodamine-phalloidin staining; assay type: functional, cell-based

## CC[C@H](C)[C@@H]1OC(=O)[C@@H](C)[C@@H](CC)NC(=O)[C@H](C)N(C)C(=O)C(C)(C)C(=O)[C@H](C)NC(=O)[C@H](Cc2ccccc2)N(C)C(=O)[C@H](C(C)C)N(C)C(=O)CNC(=O)[C@H](CC(C)C)N(C)C(=O)CNC1=O [DOLASTATIN 12] (cyclo(G[NMeL]G[NMeV][NMeF][X1][NMeA][X2]))
A10 [1]
  Activity: Active
[2]
  Activity: 270 Zone units
LoVo
  MIC: 0.08 mg/L (≈ 0.0825 µM)
A10 [3]
  Activity: Active
[4]
  Activity: 480 Zone units
Mus musculus [5]
  Activity: Toxic
A10 [6]
  Activity: Active
A10 [7]
  Activity: inactive
Mus musculus [8]
  Activity: -8%
Mus musculus [9]
  Activity: Toxic
[10]
  T/C: 68%
[11]
  T/C: 86%
MC-38 [12]
  T/C: 92%
Mus musculus [13]
  Activity: -13%
[14]
  Activity: 500 Zone units
MC-38 [15]
  T/C: 41%
L1210 [16]
  Activity: 420 Zone units
Mus musculus [17]
  Activity: -3%
Mus musculus [18]
  Activity: -15%
KB
  MIC: < 0.05 mg/L
MC-38 [19]
  Activity: 630 Zone units
Mus musculus [20]
  Activity: Non-toxic

## CC[C@H](C)[C@@H]1OC(=O)[C@@H](C)[C@@H](CC)NC(=O)[C@H](C)NC(=O)C(C)(C)C(=O)[C@H](C)NC(=O)[C@H](Cc2ccc(OC)cc2)N(C)C(=O)[C@H](C(C)C)N(C)C(=O)CNC(=O)[C@H]([C@@H](C)CC)N(C)C(=O)CNC1=O [MAJUSCULAMIDE] (cyclo(A[X2]G[NMeI]G[NMeV][NMeY](Me)[X1]))
[21]
  Activity: 450 Zone units
L1210 [22]
  Activity: 500 Zone units
MC-38 [23]
  Activity: 730 Zone units
[24]
  Activity: 710 Zone units

## CC[C@H](C)[C@@H]1OC(=O)[C@@H](C)[C@@H](CC)NC(=O)[C@H](C)N(C)C(=O)C(C)(C)C(=O)[C@H](C)NC(=O)[C@H](Cc2ccc(OC)cc2)N(C)C(=O)[C@H](C(C)C)N(C)C(=O)CNC(=O)[C@H](CC(C)C)N(C)C(=O)CNC1=O [epilyngbyastatin 1] (cyclo(G[NMeL]G[NMeV][NMeY](Me)[X1][NMeA][X2]))
MC-38 [25]
  T/C: 93%
[2]
  Activity: 650 Zone units
A10 [26]
  Activity: inactive
Mus musculus [27]
  Activity: -3%
Mus musculus [28]
  Activity: -4%
A10 [29]
  Activity: inactive
LoVo
  MIC: 0.5 mg/L (≈ 0.5 µM)
MC-38 [30]
  Activity: Toxic
A10 [3]
  Activity: Active
[4]
  Activity: 580 Zone units
Mus musculus [31]
  Activity: Toxic
Mus musculus [32]
  Activity: Non-toxic
Mus musculus [9]
  Activity: Toxic
A10 [33]
  Activity: inactive
Mus musculus [34]
  Activity: Toxic
[35]
  T/C: 61%
[14]
  Activity: 570 Zone units
Mus musculus [36]
  Activity: Toxic
L1210 [16]
  Activity: 450 Zone units
Mus musculus [37]
  Activity: Non-toxic
KB
  MIC: 0.1 mg/L (≈ 0.1 µM)
Mus musculus [38]
  Activity: -8%
MC-38 [19]
  Activity: 670 Zone units
A10 [39]
  Activity: inactive
A10 [40]
  Activity: Active
A10 [41]
  Activity: inactive
A10 [42]
  Activity: Active

Reference: ChEMBL document CHEMBL1150960, “Isolation, structure determination, and biological activity of dolastatin 12 and lyngbyastatin 1 from Lyngbya majuscula/Schizothrix calcicola cyanobacterial assemblages” (J Nat Prod, 1998)
